Laboratory results as given in ChEMBL document CHEMBL4387740, “Discovery of ABT-957: 1-Benzyl-5-oxopyrrolidine-2-carboxamides as selective calpain inhibitors with enhanced metabolic stability” (Bioorg Med Chem Lett, 2019).

What was measured:
[1] = Intrinsic clearance in rat liver microsomes; conditions: read-out: CLH
[2] = species: Homo sapiens; test: Selectivity ratio, ratio of Ki for CatK (unknown origin) to Ki for Cal1 (unknown origin)
[3] = Intrinsic clearance in human liver microsomes; type: ADME, Microsome; conditions: read-out: CLH
[4] = Intrinsic clearance in human liver cytosol; type: ADME, subcellular; conditions: read-out: CLH
[5] = Selectivity ratio, ratio of Ki for CatS (unknown origin) to Ki for Cal1 (unknown origin); conditions: Homo sapiens
[6] = species: Homo sapiens; test: Selectivity ratio, ratio of Ki for CatB (unknown origin) to Ki for Cal1 (unknown origin)
[7] = species: Homo sapiens; test: Selectivity ratio, ratio of Ki for CatL (unknown origin) to Ki for Cal1 (unknown origin)
[8] = target: T1, Calpain-1 catalytic subunit (Homo sapiens, UniProt P07384); test: Inhibition of Cal1 (unknown origin)
T1 sequence (P07384 whole entry): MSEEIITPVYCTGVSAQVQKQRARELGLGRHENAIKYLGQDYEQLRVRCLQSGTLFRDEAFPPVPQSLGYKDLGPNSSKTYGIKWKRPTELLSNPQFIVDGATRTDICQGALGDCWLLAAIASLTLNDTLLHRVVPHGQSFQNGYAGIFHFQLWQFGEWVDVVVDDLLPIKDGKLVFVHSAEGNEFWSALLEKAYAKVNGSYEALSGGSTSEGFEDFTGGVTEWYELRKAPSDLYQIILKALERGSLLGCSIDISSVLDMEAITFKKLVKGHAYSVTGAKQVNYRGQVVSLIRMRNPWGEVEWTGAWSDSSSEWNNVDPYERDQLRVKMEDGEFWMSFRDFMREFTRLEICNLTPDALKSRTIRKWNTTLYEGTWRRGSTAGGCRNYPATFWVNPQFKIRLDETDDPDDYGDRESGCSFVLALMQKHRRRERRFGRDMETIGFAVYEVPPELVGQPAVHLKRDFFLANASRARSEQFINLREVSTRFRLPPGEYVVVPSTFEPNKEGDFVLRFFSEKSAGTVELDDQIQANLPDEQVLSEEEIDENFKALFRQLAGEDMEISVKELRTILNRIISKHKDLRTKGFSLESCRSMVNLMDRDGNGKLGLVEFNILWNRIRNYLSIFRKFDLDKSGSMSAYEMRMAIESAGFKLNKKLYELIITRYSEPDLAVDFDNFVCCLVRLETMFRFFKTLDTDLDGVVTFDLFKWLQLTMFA

[9] = Intrinsic clearance in rat liver microsomes; type: ADME, Microsome; conditions: read-out: CLH

SMILES | microsomal CLint [1] | Selectivity ratio [2] | microsomal CLint [3] | microsomal CLint [4] | Selectivity ratio [5] | Selectivity ratio [6] | Selectivity ratio [7] | Ki [8] | microsomal CLint [9]
O=C(NC1CC1)C(=O)C(Cc1ccccc1)NC(=O)[C@H]1CCC(=O)N1Cc1ccccc1Cl (some centres undefined) | > 100 µL/min/mg | 93 | < 1 µL/min/mg | > 70 µL/min/mg | > 130 | 18 | 57 | 73 nM | –
O=C(NCc1ccc(F)cc1)C(=O)C(Cc1ccccc1)NC(=O)[C@H]1CCC(=O)N1Cc1ccccc1 (some centres undefined) | – | 70 | > 70 µL/min/mg | 3 µL/min/mg | 286 | 104 | 34 | 48 nM | > 100 µL/min/mg
CCNC(=O)C(=O)C(Cc1ccccc1)NC(=O)[C@H]1CCC(=O)N1Cc1ccccc1 (mixture of isomers) | – | 85 | < 23 µL/min/mg | 4 µL/min/mg | 60 | 55 | 44 | 165 nM | < 23 µL/min/mg
